The target of assay [1] is T1, PI3Kα (p110α/p85α) (Homo sapiens, UniProt P42336).
T1 construct: purchased BPS Bioscience (San Diego, Calif.) or Millipore (Billerica, Mass.)
The assay can be described thus: HTRF assay, potency against active PI3Kα. It is filed as biochemical. Particulars: HTRF; [ATP]=50 μM, [di-C8-PIP2]=10 μM; 30 min pre-incubation; read-out: PI3Kα Inhibition. In short, it runs like this:
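Active p110/p85α lipid kinase reactions were started with ATP and run 30-60 minutes at 25 °C, then stopped and developed with HTRF detection mix. HTRF ratio converted to % inhibition against ±enzyme controls; IC50 from log[inhibitor] vs response, variable slope.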
For orientation: Time-resolved FRET reads energy transfer from a long-lived donor to a nearby acceptor.

The target in assay [2] is T2, PI3Kγ (p120γ) (Homo sapiens, UniProt P48736).
T2 construct: purchased BPS Bioscience (San Diego, Calif.) or Millipore (Billerica, Mass.)
The assay can be described thus: HTRF assay, potency against active PI3Kγ. The assay is classed as biochemical. Particulars: [ATP]=50 μM, [di-C8-PIP2]=10 μM, 30 min pre-incubation, read-out: PI3Kγ Inhibition. The source says: Homogeneous Time Resolved Fluorescence (HTRF) Assay Protocol for Potency Assessment Against the Active Forms of PI3Kα, PI3Kβ, and PI3Kγ
The protocol below describes an end-point, competition-binding HTRF assay used to measure inherent potency of test compounds against active PI3Kα (p110α/p85α), PI3Kβ (p110β/p85α), and PI3Kγ (p120γ) enzymes. The mechanics of the assay platform are best described by the vendor (Millipore, Billerica, Mass.) on their website at the following URL: www.millipore.com/coa/tech1/74jt4z.
Briefly, Stop solution (Stop A, #33-007 and Stop B, #33-009; 3:1 ratio) and Detection Mix (from DMC, #33-015 with DMA, #33-011 and DMB, #33-013; 18:1:1 ratio) were prepared as recommended by the manufacturer about 2 hrs prior to use. Additionally, 1× reaction buffer (from 4× buffer stock# 33-003), 1.4× stocks of PI3Kα, PI3Kβ, and PI3Kγ enzymes from BPS Bioscience (San Diego, Calif.) or Millipore (Billerica, Mass.) with di-C8-PIP2 lipid substrate (#33-005), and a 4×ATP solution (#A7699 Sigma/Aldrich; St. Louis, Mo.) were prepared in 1× reaction buffer. 15 μL of PI3K enzymes and lipid substrate mix were pre-incubated in a Corning (#3573) 384-well, black, non-treated microtiter plate (Corning, N.Y.) for 30 min at 25° C. with a 0.5 μL volume of 50% DMSO and serially diluted compounds prepared in 50% DMSO. Lipid kinase reactions were started with the addition of 5 μL of ATP solution, mixed for 15 sec on a rotary plate shaker and incubated for 30-60 minutes at 25° C. Next, reactions were stopped with a 5 μL addition of Stop solution immediately followed by a 5 μL volume of Detection Mix. Stopped reactions were equilibrated for 1 and 18 hrs at room temperature and read in a Synergy^4 plate reader from BioTek (Winooski, Vt.) at λex330-80/λem620-35 and λem665-7.5. At the conclusion of each assay, the HTRF ratio from fluorescence emission values for each well was calculated and % Inhibition determined from averaged controls wells (+/−PI3K enzyme). % Inhibition values for each compound were then plotted against inhibitor concentration to estimate IC50 from log [Inhibitor] vs Response, Variable Slope model in GraphPad Prism from GraphPad Software (San Diego, Calif.).
[Reagent] used in optimized protocol: • [p110α/p85α]=0.5-1.5 nM, [ATP]=50 μM, [di-C8—PIP2]=10 μM • [p110β/p85α]=0.75 nM, [ATP]=50 μM, [di-C8—PIP2]=10 μM • [p120γ]=2-2.5 nM, [ATP]=50 μM, [di-C8—PIP2]=10 μM • (ATP KMapp for both enzymes was estimated to be 40-70 μM)

The subject of assay [3] is Phospho-Akt(Ser473). The assay can be described thus: Dose response in SKOV3 cells as determined by in-cell Western. The assay is classed as cell-based. The settings on record: Homo sapiens, SK-OV-3; SKOV3 cells, 1 hr; read-out: pAKT Inhibition in cell Western. The method, then:
Dose Response in SKOV3 Cells as Determined by in-Cell Western
Twenty four hours later the media was removed and replaced with 100 ul media containing test compound or control compound and cells were returned to the incubator for 1 hr. At the end of the hour, the media was removed and the cells were washed once with PBS, then fixed for 20 minutes at room temperature in 4% formaldehyde in PBS. The formaldehyde was removed and cells were washed 5 times for 5 minutes with 100 ul of Permeabilization Buffer (PBS+0.1% Triton X-100) at room temperature with gentle shaking. The last wash was removed and replaced with 150 ul of Odyssey Blocking Buffer (Li-Cor, Lincoln, Nebr.) and incubated for 90 minutes at room temperature with gentle shaking.
The Blocking Buffer was then replaced with 50 ul of primary antibody mix (rabbit anti-Phospho-Akt(Ser473) at 1:100 (Cell Signaling Technology, Boston, Mass.) and mouse anti-tubulin at 1:5000 (Sigma Aldrich, St. Louis, Mo.) diluted in Odyssey Blocking Buffer) and incubated overnight at room temperature with gentle shaking.
The next morning, the antibody mix was removed and the wells were washed 5 times for 5 minutes with PBS+0.1% Tween-20. The last wash was replaced with 50 ul of secondary antibody mix (goat anti-rabbit-IRDye-680 and goat anti-mouse-IRDye-800 (Li-Cor), both diluted 1:1000 in Odyssey Blocking Buffer+0.2% Tween-20) and incubated for 1 hour at room temperature with gentle shaking. The antibody mix was removed and the wells were washed 5 times for 5 minutes in PBS+0.1% Tween-20, then 1 time with ddH2O.
The plates were scanned on an Odyssey machine (Li-Cor) with a 3 mm focus offset at an intensity of 8 in both channels and the data was analyzed using the Odyssey software.

SMILES strings stand for the structures. pEC50, pIC50: −log10 of the molar value.

T2 sequence (P48736 whole entry): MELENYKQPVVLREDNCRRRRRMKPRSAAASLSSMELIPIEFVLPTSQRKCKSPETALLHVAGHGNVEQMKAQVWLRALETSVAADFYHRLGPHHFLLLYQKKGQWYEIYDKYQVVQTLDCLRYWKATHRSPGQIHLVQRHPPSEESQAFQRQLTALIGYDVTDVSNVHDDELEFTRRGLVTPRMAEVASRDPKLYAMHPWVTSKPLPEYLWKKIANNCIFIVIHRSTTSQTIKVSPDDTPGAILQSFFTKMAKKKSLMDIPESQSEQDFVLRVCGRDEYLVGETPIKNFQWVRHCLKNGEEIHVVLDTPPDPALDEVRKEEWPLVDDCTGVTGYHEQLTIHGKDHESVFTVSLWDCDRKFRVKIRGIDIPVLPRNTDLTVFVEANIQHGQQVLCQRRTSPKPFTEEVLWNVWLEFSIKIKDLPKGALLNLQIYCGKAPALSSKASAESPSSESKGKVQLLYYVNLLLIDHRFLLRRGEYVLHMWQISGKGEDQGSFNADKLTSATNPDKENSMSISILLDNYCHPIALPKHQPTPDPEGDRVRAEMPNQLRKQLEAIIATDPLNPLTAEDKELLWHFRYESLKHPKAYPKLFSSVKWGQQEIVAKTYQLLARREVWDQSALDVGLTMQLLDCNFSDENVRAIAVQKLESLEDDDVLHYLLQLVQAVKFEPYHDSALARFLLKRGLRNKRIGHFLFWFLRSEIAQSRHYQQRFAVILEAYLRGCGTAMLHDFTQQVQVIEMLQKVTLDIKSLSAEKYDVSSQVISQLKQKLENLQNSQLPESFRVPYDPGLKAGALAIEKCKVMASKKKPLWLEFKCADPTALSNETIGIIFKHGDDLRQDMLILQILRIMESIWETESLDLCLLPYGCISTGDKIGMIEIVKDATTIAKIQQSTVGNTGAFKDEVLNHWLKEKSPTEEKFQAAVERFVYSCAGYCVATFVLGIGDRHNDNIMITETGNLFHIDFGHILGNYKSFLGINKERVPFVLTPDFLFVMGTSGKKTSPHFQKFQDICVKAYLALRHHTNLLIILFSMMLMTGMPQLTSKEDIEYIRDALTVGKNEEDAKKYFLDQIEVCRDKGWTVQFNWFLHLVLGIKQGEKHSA
T1 sequence (P42336 whole entry): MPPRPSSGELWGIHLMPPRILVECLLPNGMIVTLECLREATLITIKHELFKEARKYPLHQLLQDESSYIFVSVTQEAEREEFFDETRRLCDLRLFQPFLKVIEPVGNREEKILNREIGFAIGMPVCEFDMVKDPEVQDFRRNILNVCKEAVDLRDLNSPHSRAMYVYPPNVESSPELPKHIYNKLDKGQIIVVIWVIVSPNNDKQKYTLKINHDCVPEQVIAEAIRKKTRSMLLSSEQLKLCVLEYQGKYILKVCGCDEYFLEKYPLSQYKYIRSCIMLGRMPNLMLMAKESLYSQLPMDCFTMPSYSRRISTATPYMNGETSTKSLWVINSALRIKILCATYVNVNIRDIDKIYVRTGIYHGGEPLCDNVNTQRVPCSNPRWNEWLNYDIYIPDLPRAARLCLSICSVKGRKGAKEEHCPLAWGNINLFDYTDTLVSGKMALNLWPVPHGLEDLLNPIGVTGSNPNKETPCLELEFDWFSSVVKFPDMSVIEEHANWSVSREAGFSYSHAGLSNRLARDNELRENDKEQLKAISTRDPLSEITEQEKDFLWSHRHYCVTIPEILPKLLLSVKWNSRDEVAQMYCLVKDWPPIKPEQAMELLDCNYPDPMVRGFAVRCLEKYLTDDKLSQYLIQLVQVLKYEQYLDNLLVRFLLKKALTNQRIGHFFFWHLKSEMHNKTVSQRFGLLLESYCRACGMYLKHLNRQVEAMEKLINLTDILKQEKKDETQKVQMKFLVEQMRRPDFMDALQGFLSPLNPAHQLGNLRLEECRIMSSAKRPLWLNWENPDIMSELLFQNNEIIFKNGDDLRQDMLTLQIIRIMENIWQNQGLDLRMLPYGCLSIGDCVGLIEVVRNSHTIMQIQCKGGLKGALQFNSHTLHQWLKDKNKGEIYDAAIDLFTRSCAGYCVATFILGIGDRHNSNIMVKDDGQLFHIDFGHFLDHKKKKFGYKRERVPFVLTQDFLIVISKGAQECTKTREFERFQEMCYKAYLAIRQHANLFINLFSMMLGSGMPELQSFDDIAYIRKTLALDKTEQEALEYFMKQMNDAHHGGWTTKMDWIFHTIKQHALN
T1 sequence (P27986 whole entry partner): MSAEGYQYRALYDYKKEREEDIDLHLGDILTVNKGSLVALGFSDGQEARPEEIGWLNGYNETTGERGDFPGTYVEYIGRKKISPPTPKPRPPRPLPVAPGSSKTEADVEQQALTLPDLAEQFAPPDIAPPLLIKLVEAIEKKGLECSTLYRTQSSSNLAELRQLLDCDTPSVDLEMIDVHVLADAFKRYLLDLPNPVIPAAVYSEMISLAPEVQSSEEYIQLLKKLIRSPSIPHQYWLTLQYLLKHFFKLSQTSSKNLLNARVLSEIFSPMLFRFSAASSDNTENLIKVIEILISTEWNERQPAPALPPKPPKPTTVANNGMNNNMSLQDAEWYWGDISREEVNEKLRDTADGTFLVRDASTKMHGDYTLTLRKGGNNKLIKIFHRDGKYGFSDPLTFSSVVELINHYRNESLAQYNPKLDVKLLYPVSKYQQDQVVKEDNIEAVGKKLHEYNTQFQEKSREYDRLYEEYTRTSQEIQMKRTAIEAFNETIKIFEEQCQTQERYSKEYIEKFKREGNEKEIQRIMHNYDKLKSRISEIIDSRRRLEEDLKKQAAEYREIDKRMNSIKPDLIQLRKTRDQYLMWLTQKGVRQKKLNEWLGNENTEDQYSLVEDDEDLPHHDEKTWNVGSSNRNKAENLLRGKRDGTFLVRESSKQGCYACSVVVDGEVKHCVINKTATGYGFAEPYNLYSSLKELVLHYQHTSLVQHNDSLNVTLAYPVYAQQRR

As for `C=CC(=O)N1CCN(Cc2cc3nc(-c4ccccc4)nc(N4CCOCC4)c3s2)CC1` [II-a-17, 1-(4-((4-morpholino-2-phenylthieno[3,2-d]pyrimidin-6-yl)methyl)piperazin-1-yl)prop-2-en-1-one], the pIC50 in assay [1] and in assay [2] was less than 6.00 each time.
Consider `C=CC(=O)N1CCN(C(=O)c2ccc(-c3cc4nc(-c5cccc6[nH]ncc56)nc(N5CCOCC5)c4s3)cc2)CC1` [II-a-57, 1-(4-(4-(2-(1H-indazol-4-yl)-4-morpholinothieno[3,2-d]pyrimidin-6-yl)benzoyl)piperazin-1-yl)prop-2-en-1-one], for which the pIC50 in assay [1] is 6.00 to 7.00; in assay [2], less than 6.00.
For `C=CC(=O)N1CCN(C(=O)C2CCN(Cc3cc4nc(-c5cccc(O)c5)nc(N5CCOCC5)c4s3)CC2)CC1` [II-a-34, (1-((2-(3-hydroxyphenyl)-4-morpholinothieno[3,2-d]pyrimidin-6-yl)methyl)piperidin-4-yl)(4-acryloyl-piperazin-1-yl)methanone], the pIC50 in assay [1] was 6.00 to 7.00; in assay [2] it was less than 6.00.
For `CN(C/C=C/C(=O)CCC(=O)N1CCN(Cc2cc3nc(-c4cccc5[nH]ncc45)nc(N4CCOCC4)c3s2)CC1)C(=O)OC(C)(C)C` [II-a-24], in that order: 7.00 to 8.00 and less than 6.00.
For the molecule `C=CC(=O)NCc1ccc(C(=O)N2CCN(Cc3cc4nc(-c5cccc6[nH]ncc56)nc(N5CCOCC5)c4s3)CC2)cc1` [II-a-21, N-(4-(4-((2-(1H-indazol-4-yl)-4-morpholinothieno[3,2-d]pyrimidin-6-yl)methyl)piperazine-1-carbonyl)benzyl)acrylamide], the pIC50 in assay [1] and in assay [2] was less than 6.00 throughout.
As for `C=CC(=O)N(C)Cc1cc2nc(-c3cccc(O)c3)nc(N3CCOCC3)c2s1` [II-a-39, N-((2-(3-hydroxyphenyl)-4-morpholinothieno[3,2-d]pyrimidin-6-yl)methyl)-N-methylacrylamide], the figures for the pIC50 in assay [1] and in assay [2] were 7.00 to 8.00 and less than 6.00, respectively.
Regarding `CC(C)=CC(=O)CCC(=O)NCC(=O)N1CCN(Cc2cc3nc(-c4cccc5[nH]ncc45)nc(N4CCOCC4)c3s2)CC1` [II-a-41, N-(2-(4-((2-(1H-indazol-4-yl)-4-morpholinothieno[3,2-d]pyrimidin-6-yl)methyl)piperazin-1-yl)-2-oxoethyl)-6-methyl-4-oxohept-5-enamide], the pIC50 in assay [1] and in assay [2] was less than 6.00 in each case.
For the molecule `C=CS(=O)(=O)N1CCN(Cc2cc3nc(-c4cccc5[nH]ncc45)nc(N4CCOCC4)c3s2)CC1` [II-a-1], the pIC50 in assay [1] and in assay [2] was 6.00 to 7.00 in each case.
Turning to `C=CC(=O)NCC(=O)NCC(=O)N1CCN(Cc2cc3nc(-c4cccc5[nH]ncc45)nc(N4CCOCC4)c3s2)CC1` [II-a-32, N-(2-(2-(4-((2-(1H-indazol-4-yl)-4-morpholinothieno[3,2-d]pyrimidin-6-yl)methyl)piperazin-1-yl)-2-oxoethylamino)-2-oxoethyl)acrylamide], the pIC50 in assay [1] was 6.00 to 7.00; in assay [2], less than 6.00.
For `C/C=C/C(=O)CCC(=O)N(C)Cc1cc2nc(-c3cccc(O)c3)nc(N3CCOCC3)c2s1` [II-a-40, (E)-N-((2-(3-hydroxyphenyl)-4-morpholinothieno[3,2-d]pyrimidin-6-yl)methyl)-N-methyl-4-oxohept-5-enamide], the pIC50 was 7.00 to 8.00 in assay [1] and 6.00 to 7.00 in assay [2].
For `C=CC(=O)N(C)CC(=O)N1CCN(Cc2cc3nc(-c4cccc5[nH]ncc45)nc(N4CCOCC4)c3s2)CC1` [II-a-44, N-(2-(4-((2-(1H-indazol-4-yl)-4-morpholinothieno[3,2-d]pyrimidin-6-yl)methyl)piperazin-1-yl)-2-oxoethyl)-N-methylacrylamide], in that order: less than 6.00 and less than 6.00.
Take `C=CC(=O)NCCS(=O)(=O)N1CCN(Cc2cc3nc(-c4cccc5[nH]ncc45)nc(N4CCOCC4)c3s2)CC1` [II-a-13, N-(2-(4-((2-(1H-indazol-4-yl)-4-morpholinothieno[3,2-d]pyrimidin-6-yl)methyl)piperazin-1-ylsulfonyl)ethyl)acrylamide]: the pIC50 is 7.00 to 8.00 in assay [1] and less than 6.00 in assay [2].
For `CN(C)C/C=C/C(=O)NCC(=O)N1CCN(Cc2cc3nc(-c4cccc5[nH]ncc45)nc(N4CCOCC4)c3s2)CC1` [II-a-56, (E)-N-(2-(4-((2-(1H-indazol-4-yl)-4-morpholinothieno[3,2-d]pyrimidin-6-yl)methyl)piperazin-1-yl)-2-oxoethyl)-4-(dimethylamino)but-2-enamide], in that order: 6.00 to 7.00 and less than 6.00.
For `C=CC(=O)N1Cc2ccc(-c3cc4nc(-c5cccc(O)c5)nc(N5CCOCC5)c4s3)cc2C1` [II-a-27, 1-(5-(2-(3-hydroxyphenyl)-4-morpholinothieno[3,2-d]pyrimidin-6-yl)isoindolin-2-yl)prop-2-en-1-one], in that order: 6.00 to 7.00 and less than 6.00.
As for `C=CC(=O)Nc1ccc(C(=O)N2CC=C(c3cc(-c4cnc(N)nc4)nc(N4CCOCC4)c3)CC2)cc1` [XII-46, N-(4-(4-(2-(2-aminopyrimidin-5-yl)-6-morpholinopyridin-4-yl)-1,2,3,6-tetrahydropyridine-1-carbonyl)phenyl)acrylamide], the pIC50 in assay [1] is 6.00 to 7.00. In addition, the pEC50 in assay [3] was 6.00 to 7.00.
As for `O=C(/C=C/c1cccnc1)CCC(=O)N1CCN(Cc2cc3nc(-c4cccc5[nH]ncc45)nc(N4CCOCC4)c3s2)CC1` [II-a-132, (E)-1-(4-((2-(1H-indazol-4-yl)-4-morpholinothieno[3,2-d]pyrimidin-6-yl)methyl)piperazin-1-yl)-6-(pyridin-3-yl)hex-5-ene-1,4-dione], in assay [1], the pIC50 is 6.00 to 7.00. Besides, the pEC50 in assay [3] is 7.00 to 8.00.
`C=CC(=O)Nc1ccc(C(=O)N(C)Cc2cc3nc(-c4cnc(N)nc4)nc(N4CCOCC4)c3s2)cc1` [II-a-175, 4-acrylamido-N-((2-(2-aminopyrimidin-5-yl)-4-morpholinothieno[3,2-d]pyrimidin-6-yl)methyl)-N-methylbenzamide]: the pIC50 in assay [1] was 7.00 to 8.00. Also, the pEC50 in assay [3] was not below 8.00.
`CC(C)=CC(=O)CCCC(=O)N1CCC2(CC1)CN(c1cc(-c3cnc(N)nc3)nc(N3CCOCC3)c1)C2` [XII-41, 1-(2-(2-(2-aminopyrimidin-5-yl)-6-morpholinopyridin-4-yl)-2,7-diazaspiro[3.5]nonan-7-yl)-7-methyloct-6-ene-1,5-dione]: the pIC50 in assay [1] is less than 6.00. Further, the pEC50 in assay [3] was 6.00 to 7.00.
